Data as given in patent US10759796B2, “CXCR4 inhibitors and uses thereof” (X4 Pharmaceuticals, Inc., priority 2016, dated 2020).

Assays:
[1] = biological target: CXCR-4 transfected U87 cell line (U87.CXCR4) (Homo sapiens (Human), UniProt P61073); assay: Intracellular CXCL-12-induced calcium mobilization assay (FLIPR); type: cell-based; conditions: U87.CXCR4 cells, CXCL-12 25-50 ng/mL; read-out: IC50 CXCL-12 Ca2+ flux U87.CXCR4+
Procedure, shortened: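 U87.CXCR4 cells were seeded at 20,000 per well, cultured 12 hours, then loaded with 4 μM Fluo-2 AM for 45 min at 37° C. in HBSS with 20 mM HEPES and 0.2% BSA, pH 7.4. Calcium flux triggered by CXCL-12 (25-50 ng/mL) was tracked over time by FLIPR fluorescence at 37° C.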

[2] = biological target: Jurkat cells expressing CXCR4 (Homo sapiens (Human), UniProt P61073); assay: Chemokine (CXCL12-AF647) binding inhibition assay; conditions: CXCL12-AF647 25 ng/mL, read-out: IC50 CXCL-12 binding Jurkat
Jurkat cells expressing CXCR4, sequence (P61073 whole entry): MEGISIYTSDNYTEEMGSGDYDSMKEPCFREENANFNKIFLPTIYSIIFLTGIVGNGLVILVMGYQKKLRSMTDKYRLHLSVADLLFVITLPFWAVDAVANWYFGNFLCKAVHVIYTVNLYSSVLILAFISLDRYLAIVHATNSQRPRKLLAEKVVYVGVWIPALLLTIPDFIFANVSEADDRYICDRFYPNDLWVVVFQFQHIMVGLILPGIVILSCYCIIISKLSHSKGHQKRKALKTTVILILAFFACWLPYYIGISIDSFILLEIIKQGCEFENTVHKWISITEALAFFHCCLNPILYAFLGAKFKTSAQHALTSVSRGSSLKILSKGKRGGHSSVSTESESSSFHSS
Procedure, shortened: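 Cells in HBSS, 20 mM HEPES, 0.2% BSA, pH 7.4, preincubated 15 min at room temperature with compound, then 25 ng/mL CXCL12-AF647 for 30 min. After washing and paraformaldehyde fixation, bound ligand read by flow cytometry; percent inhibition calculated from MFI relative to unlabeled and ligand-only controls.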

in vitro = conditions: human, Caco-2, pH 7.4
Procedure, shortened: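 Compounds at 10 μM in HBSS pH 7.4 (0.1–0.3% DMSO) were dosed on Caco-2 monolayers, apical-to-basolateral and basolateral-to-apical, for 90 min at 37 °C, in duplicate. Monolayer integrity was checked by TEER and lucifer yellow flux, read by fluorescence at 485/535 nm. Compound was quantified by LC-MS/MS and Papp calculated.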

CXCR-4 transfected U87 cell line (U87.CXCR4), sequence (P61073 whole entry): as above

Row | SMILES | IC50 [1] [nM] | IC50 [2] [nM] | Papp A→B at 90 min, 10 μM (in vitro) [×10⁻⁶ cm/s] | Papp B→A at 90 min, 10 μM (in vitro) [×10⁻⁶ cm/s] | efflux ratio at 90 min, 10 μM (in vitro)
1 | Cc1cccnc1[C@@H]1CCC[C@H](c2cn3c(N4CCN(C)CC4)cccc3n2)N1C(C)C [Compound I-126] | 0.01 to 100 | 0.01 to 100 | 0.1 to 10 | 10 to 30 | 10 to 30
2 | Cc1cccnc1[C@@H]1CCC[C@H](c2nc3cccc(N4CCN(C)CC4)n3c2Cl)N1C(C)C [Compound I-127] | 0.01 to 100 | 0.01 to 100 | 0.1 to 10 | 0.1 to 10 | 0.1 to 10
3 | CN(C)C1CCN(c2cccc3nc([C@H]4CCC[C@@H](c5ncccc5Cl)N4C)c(Cl)n23)CC1 [Compound I-132] | 100 to 1000 | 0.01 to 100 | 0.1 to 10 | 0.1 to 10 | 0.1 to 10
4 | CN1CC2CCC(C1)N2c1cccc2nc([C@H]3CCC[C@@H](c4ncccc4Cl)N3C)c(CO)n12 [Compound I-134] | 0.01 to 100 | 0.01 to 100 | 10 to 30 | 10 to 30 | 0.1 to 10
5 | CN1C2CCC1CN(c1cccc3nc([C@H]4CCC[C@@H](c5ncccc5Cl)N4C)c(CO)n13)C2 [Compound I-135] | 0.01 to 100 | 0.01 to 100 | 0.1 to 10 | 10 to 30 | 0.1 to 10
6 | CN(C)C1CCN(c2cccc3nc([C@H]4CCC[C@@H](c5ncccc5Cl)N4C)c(CO)n23)CC1 [Compound I-136] | 0.01 to 100 | 0.01 to 100 | 0.1 to 10 | 10 to 30 | 10 to 30
7 | Cc1cccnc1[C@@H]1CCC[C@H](c2nc3cccc(N4CC5CCC(C4)N5C)n3c2Cl)N1C [Compound I-137] | 100 to 1000 | 0.01 to 100 | 0.1 to 10 | 0.1 to 10 | 0.1 to 10
8 | Cc1cccnc1[C@@H]1CCC[C@H](c2nc3cccc(N4C5CCC4CN(C)C5)n3c2Cl)N1C [Compound I-138] | 0.01 to 100 | 0.01 to 100 | 10 to 30 | 10 to 30 | 0.1 to 10
9 | CC[C@@H](O)c1c([C@H]2CCC[C@@H](c3ncccc3C)N2C)nc2cccc(N3CCN(C)CC3)n12 [Compound I-139] | 100 to 1000 | 0.01 to 100 | 0.1 to 10 | > 30 | > 30
10 | C/C=C/c1c([C@H]2CCC[C@@H](c3ncccc3C)N2C)nc2cccc(N3CCN(C)CC3)n12 [Compound I-141] | 100 to 1000 | 0.01 to 100 | 0.1 to 10 | 10 to 30 | 0.1 to 10
11 | CN(C)C1CCN(c2cccc3nc([C@H]4CCC[C@@H](c5ncccc5Cl)N4C)cn23)CC1 [Compound I-142] | 0.01 to 100 | 0.01 to 100 | 0.1 to 10 | 10 to 30 | 0.1 to 10
12 | CN1CCN(c2cccc3nc([C@H]4CCC[C@@H](c5ncccc5Cl)N4)c(Cl)n23)CC1 [Compound I-147] | 100 to 1000 | 0.01 to 100 | 10 to 30 | 10 to 30 | 0.1 to 10
13 | CC(C)N1CCN(c2cccc3nc([C@H]4CCC[C@@H](c5ncccc5Cl)N4C)cn23)CC1 [Compound I-150] | ≥ 1000 | 0.01 to 100 | 0.1 to 10 | 10 to 30 | 0.1 to 10
14 | CCN1CCN(c2cccc3nc([C@H]4CCC[C@@H](c5ncccc5Cl)N4C)cn23)CC1 [Compound I-151] | 100 to 1000 | 0.01 to 100 | 10 to 30 | 10 to 30 | 0.1 to 10
15 | Cc1cccnc1[C@@H]1CCC[C@H](c2nc3ccccn3c2N2CCN(C)CC2)N1C [Compound I-152] | 0.01 to 100 | 0.01 to 100 | 0.1 to 10 | 10 to 30 | 0.1 to 10
16 | Cc1cccnc1[C@@H]1CCC[C@H](c2nc3ccccn3c2N2CCN(C)CC2)N1 [Compound I-154] | ≥ 1000 | 100 to 1000 | 0.1 to 10 | 10 to 30 | 0.1 to 10
17 | Cc1cccnc1[C@@H]1CCC[C@H](c2cn3c(N4CCNC5(CC5)C4)cccc3n2)N1C [Compound I-156] | 0.01 to 100 | 0.01 to 100 | 0.1 to 10 | 10 to 30 | 0.1 to 10
18 | CN1[C@@H](c2cn3c(N4CCNC5(CC5)C4)cccc3n2)CCC[C@H]1c1ncccc1Cl [Compound I-159] | 0.01 to 100 | 0.01 to 100 | 10 to 30 | 10 to 30 | 0.1 to 10
19 | CN1CCN(c2cccc3nc([C@H]4CCC[C@@H](c5ncccc5Cl)N4)cn23)CC12CC2 [Compound I-160] | ≥ 1000 | 100 to 1000 | 10 to 30 | 10 to 30 | 0.1 to 10
20 | Cc1cccnc1[C@@H]1CCC[C@H](c2nc3c(N)ccc(N4CCN(C)CC4)n3c2Cl)N1C [Compound I-164] | 0.01 to 100 | 0.01 to 100 | 10 to 30 | 10 to 30 | 0.1 to 10
21 | Clc1cccnc1[C@@H]1CCC[C@H](c2cn3c(N4CCNC5(CC5)C4)cccc3n2)N1 [Compound I-166] | ≥ 1000 | 100 to 1000 | 10 to 30 | 10 to 30 | 0.1 to 10
22 | Clc1cccnc1[C@@H]1CCC[C@H](c2nc3cccc(N4CCNC5(CC5)C4)n3c2Cl)N1 [Compound I-167] | ≥ 1000 | 100 to 1000 | 0.1 to 10 | 0.1 to 10 | 0.1 to 10
